Experiment [1] concerns the target T1, Eukaryotic translation initiation factor 2-alpha kinase 3 (Homo sapiens) (UniProt Q9NZJ5).
T1 sequence (whole entry): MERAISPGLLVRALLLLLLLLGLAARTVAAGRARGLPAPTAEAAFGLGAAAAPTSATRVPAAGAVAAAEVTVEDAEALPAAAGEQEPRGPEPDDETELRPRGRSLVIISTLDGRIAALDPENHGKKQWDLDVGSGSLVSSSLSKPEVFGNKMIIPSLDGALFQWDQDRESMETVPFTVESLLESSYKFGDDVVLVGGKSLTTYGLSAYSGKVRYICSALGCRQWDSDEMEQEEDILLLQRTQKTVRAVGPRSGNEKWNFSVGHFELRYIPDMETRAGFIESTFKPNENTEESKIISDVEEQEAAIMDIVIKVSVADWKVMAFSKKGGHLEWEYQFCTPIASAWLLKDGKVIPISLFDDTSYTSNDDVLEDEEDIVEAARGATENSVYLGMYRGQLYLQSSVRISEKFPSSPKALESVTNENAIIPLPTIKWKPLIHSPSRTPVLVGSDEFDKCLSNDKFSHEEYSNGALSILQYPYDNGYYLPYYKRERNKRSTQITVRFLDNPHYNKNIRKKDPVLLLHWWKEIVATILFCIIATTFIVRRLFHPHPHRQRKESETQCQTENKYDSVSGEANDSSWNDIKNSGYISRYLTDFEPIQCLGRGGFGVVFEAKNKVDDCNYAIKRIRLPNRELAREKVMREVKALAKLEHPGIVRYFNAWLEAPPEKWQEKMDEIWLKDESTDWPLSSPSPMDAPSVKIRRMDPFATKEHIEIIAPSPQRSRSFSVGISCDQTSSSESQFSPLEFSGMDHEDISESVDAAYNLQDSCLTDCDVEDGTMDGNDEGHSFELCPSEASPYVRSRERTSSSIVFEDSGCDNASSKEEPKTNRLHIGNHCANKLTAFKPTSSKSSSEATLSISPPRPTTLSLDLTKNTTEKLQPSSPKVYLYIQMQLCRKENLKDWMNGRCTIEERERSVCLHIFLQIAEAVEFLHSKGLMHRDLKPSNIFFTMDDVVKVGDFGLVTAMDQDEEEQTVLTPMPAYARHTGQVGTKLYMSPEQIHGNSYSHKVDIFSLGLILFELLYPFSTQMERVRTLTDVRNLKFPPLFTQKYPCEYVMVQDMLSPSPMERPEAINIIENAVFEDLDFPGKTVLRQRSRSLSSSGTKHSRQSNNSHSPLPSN
As to the kind of experiment: Selectivity interaction (ProQinase) EUB0000171b EIF2AK3.

Experiment [2] deals with Serine/threonine-protein kinase Nek7 (Homo sapiens) (UniProt Q8TDX7). To be noted: at 10 µM.
Experiment [3] has as its target T2, Serine/threonine-protein kinase Nek11 (Homo sapiens) (UniProt Q8NG66).
T2 sequence (whole entry): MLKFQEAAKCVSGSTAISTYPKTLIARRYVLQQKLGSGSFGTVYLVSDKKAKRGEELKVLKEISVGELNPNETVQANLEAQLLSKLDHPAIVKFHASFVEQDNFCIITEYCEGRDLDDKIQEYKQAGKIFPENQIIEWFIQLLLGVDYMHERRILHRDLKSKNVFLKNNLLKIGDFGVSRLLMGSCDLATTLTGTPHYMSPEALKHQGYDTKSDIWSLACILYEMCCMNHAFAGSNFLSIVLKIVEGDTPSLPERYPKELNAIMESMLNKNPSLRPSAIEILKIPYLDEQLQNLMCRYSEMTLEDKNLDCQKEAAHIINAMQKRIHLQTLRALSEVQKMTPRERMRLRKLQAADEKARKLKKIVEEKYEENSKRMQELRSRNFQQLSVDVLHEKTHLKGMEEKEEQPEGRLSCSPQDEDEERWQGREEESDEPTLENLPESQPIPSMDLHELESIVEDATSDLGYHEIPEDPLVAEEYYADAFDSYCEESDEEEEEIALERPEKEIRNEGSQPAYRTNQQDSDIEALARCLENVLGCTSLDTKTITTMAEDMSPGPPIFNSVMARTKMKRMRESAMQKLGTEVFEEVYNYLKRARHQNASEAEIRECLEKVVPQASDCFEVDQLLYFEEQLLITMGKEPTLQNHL
Nature of the experiment: Selectivity interaction (KinomeScan (DiscoverX)) EUB0001079a NEK11. To be noted: at 1 µM.

Experiment [4] deals with Serine/threonine-protein kinase 32A (Homo sapiens) (UniProt Q8WU08). Nature of the experiment: Selectivity interaction (KinomeScan (DiscoverX)) EUB0000092b STK32A. To be noted: at 10 µM.
The target in experiment [5] is Tyrosine-protein kinase Srms (Homo sapiens) (UniProt Q9H3Y6). As to the kind of experiment: Selectivity interaction (KinomeScan (DiscoverX)) EUB0000229b SRMS. To be noted: at 10 µM.
Experiment [6] concerns the target Protein kinase C delta type (Homo sapiens) (UniProt Q05655). Nature of the experiment: Selectivity interaction (KinomeScan (DiscoverX)) EUB0000229b PRKCD. To be noted: at 10 µM.
For experiment [7], the target named is Death-associated protein kinase 2 (Homo sapiens) (UniProt Q9UIK4). Nature of the experiment: Selectivity interaction (KinomeScan (DiscoverX)) EUB0000618a DAPK2. To be noted: at 10 µM.
Death-associated protein kinase 2 (Homo sapiens), sequence (Q9UIK4 whole entry, looked up): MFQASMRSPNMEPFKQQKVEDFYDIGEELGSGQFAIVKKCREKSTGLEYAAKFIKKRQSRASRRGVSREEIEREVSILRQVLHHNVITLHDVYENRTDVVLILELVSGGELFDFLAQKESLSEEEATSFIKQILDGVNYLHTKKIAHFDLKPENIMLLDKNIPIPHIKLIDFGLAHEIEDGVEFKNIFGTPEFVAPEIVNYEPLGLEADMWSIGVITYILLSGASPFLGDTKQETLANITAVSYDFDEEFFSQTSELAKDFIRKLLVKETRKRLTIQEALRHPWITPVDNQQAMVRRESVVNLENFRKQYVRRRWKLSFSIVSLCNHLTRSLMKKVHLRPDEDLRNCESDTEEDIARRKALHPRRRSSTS

Serine/threonine-protein kinase Nek7 (Homo sapiens), sequence (Q8TDX7 whole entry, looked up): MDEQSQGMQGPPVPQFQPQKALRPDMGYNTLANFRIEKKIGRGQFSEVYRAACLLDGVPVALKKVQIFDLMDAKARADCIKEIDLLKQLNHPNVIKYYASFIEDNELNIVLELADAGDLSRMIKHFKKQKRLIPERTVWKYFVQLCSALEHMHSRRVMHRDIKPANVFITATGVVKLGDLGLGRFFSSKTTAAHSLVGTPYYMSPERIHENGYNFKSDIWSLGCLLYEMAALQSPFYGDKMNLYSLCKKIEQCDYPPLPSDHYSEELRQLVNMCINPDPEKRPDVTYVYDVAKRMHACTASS
Protein kinase C delta type (Homo sapiens), sequence (Q05655 whole entry, looked up): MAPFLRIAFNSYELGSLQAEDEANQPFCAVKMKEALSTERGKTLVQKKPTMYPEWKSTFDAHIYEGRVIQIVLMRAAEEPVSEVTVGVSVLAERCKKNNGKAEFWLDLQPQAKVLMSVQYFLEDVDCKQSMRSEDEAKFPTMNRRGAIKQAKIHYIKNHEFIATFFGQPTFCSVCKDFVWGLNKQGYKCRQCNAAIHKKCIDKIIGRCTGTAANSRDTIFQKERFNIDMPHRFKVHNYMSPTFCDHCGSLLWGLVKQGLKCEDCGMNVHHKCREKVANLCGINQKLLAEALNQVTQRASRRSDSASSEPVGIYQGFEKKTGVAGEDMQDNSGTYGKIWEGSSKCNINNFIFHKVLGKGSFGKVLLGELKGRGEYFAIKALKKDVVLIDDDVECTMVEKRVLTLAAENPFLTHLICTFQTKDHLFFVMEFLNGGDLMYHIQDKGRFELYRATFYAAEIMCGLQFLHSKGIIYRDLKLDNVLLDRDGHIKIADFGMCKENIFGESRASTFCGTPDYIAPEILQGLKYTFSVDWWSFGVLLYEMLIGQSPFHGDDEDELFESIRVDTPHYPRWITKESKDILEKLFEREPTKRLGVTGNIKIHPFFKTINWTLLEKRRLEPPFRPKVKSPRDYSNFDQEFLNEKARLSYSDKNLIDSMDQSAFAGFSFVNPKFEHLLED
Tyrosine-protein kinase Srms (Homo sapiens), sequence (Q9H3Y6 whole entry): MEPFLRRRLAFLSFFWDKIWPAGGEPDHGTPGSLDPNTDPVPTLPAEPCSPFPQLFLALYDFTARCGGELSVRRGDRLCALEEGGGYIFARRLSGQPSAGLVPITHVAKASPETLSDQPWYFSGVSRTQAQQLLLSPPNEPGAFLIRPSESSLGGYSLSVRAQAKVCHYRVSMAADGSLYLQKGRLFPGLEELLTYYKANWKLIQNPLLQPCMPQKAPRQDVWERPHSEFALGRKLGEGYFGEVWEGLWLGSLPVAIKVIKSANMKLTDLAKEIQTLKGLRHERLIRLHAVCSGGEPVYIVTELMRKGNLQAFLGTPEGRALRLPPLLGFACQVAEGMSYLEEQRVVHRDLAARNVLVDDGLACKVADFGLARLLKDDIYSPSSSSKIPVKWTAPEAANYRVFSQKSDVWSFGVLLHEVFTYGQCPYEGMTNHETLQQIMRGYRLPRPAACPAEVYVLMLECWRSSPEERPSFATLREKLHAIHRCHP
Serine/threonine-protein kinase 32A (Homo sapiens), sequence (Q8WU08 whole entry): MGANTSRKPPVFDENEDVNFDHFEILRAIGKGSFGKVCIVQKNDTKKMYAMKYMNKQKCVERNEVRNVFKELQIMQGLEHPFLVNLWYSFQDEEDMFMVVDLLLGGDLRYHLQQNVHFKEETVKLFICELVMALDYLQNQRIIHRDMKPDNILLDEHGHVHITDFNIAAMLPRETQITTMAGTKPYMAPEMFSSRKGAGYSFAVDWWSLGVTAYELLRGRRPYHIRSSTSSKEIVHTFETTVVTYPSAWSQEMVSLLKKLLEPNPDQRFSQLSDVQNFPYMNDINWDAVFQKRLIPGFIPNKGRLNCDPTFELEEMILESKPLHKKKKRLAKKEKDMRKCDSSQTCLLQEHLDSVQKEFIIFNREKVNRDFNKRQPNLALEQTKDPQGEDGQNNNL

In the case of `C=CC(=O)Nc1cccc(C(=O)Nc2ccc(Nc3cc(-c4[nH]c(SC)nc4C)ccn3)cc2)c1`, the % of control turned out to be 92% in experiment [1] (at 1 µM) and 97% in experiment [1] (at 5 µM).

Turning to `Cc1cc([C@@H](C)Nc2ccccc2C(=O)O)c2nc(N3CCOCC3)cc(=O)n2c1` [AZD-6482], the % of control in experiment [2] came to 100%.

Turning to `Nc1cnc(N2CCc3cc(S(=O)(=O)Nc4c(F)cc(Cl)cc4F)cc(N4CCCC4=O)c32)nc1` [TP-020n], the % of control in experiment [3] worked out at 100%.

Take `CCC(=O)N1CCN(c2ccc(-n3c(=O)ccc4cnc5ccc(-c6cnc7ccccc7c6)cc5c43)cc2C(F)(F)F)CC1`: the % of control in experiment [4] is 100%.

Regarding `COc1cc(N(C)c2ccnc3ccc(C(F)(F)F)cc23)cc(OC)c1OC`, the % binding in experiment [5] amounted to 60%; in experiment [6], 95%.

`O[C@H]1CC[C@H](Nc2ncc3nc(Nc4c(F)cc(F)cc4F)n([C@H]4CCOC4)c3n2)CC1` displayed a % of control in experiment [7] of 100%.

The values above are taken from ChEMBL document CHEMBL5465560, “Selectivity Literature for EUbOPEN Chemogenomic Library” (2024).
